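How tested: cells in 96-well plates exposed to compound for 48 hours at five concentrations. The concentration for 50% growth inhibition is given as GI50. TGI marks complete inhibition of growth.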
What was measured:
Assay in all cases: NCI tumour cell line growth inhibition, 48 h
HCC-2998 colon = test system: HCC-2998 colon
SNB-75 CNS = test system: SNB-75 CNS
SF-295 CNS = test system: SF-295 CNS
UACC-62 melanoma = test system: UACC-62 melanoma
SW-620 colon = test system: SW-620 colon
MALME-3M melanoma = test system: MALME-3M melanoma
MCF7 breast = test system: MCF7 breast
A498 renal = test system: A498 renal
NCI-H522 lung = test system: NCI-H522 lung
IGROV1 ovarian = test system: IGROV1 ovarian
U251 CNS = test system: U251 CNS
CCRF-CEM leukemia = test system: CCRF-CEM leukemia
HL-60(TB) leukemia = test system: HL-60(TB) leukemia
SK-MEL-5 melanoma = test system: SK-MEL-5 melanoma
OVCAR-4 ovarian = test system: OVCAR-4 ovarian
NCI/ADR-RES ovarian = test system: NCI/ADR-RES ovarian
HCT-116 colon = test system: HCT-116 colon
SK-OV-3 ovarian = test system: SK-OV-3 ovarian
EKVX NSCLC = test system: EKVX NSCLC
SK-MEL-2 melanoma = test system: SK-MEL-2 melanoma
HOP-92 NSCLC = test system: HOP-92 NSCLC
NCI-H460 lung = test system: NCI-H460 lung
ACHN renal = test system: ACHN renal
RPMI-8226 leukemia = test system: RPMI-8226 leukemia
T-47D breast = test system: T-47D breast
SNB-19 CNS = test system: SNB-19 CNS
UACC-257 melanoma = test system: UACC-257 melanoma
RXF 393 renal = test system: RXF 393 renal
HOP-62 NSCLC = test system: HOP-62 NSCLC
BT-549 breast = test system: BT-549 breast
A549 NSCLC = test system: A549 NSCLC
SK-MEL-28 melanoma = test system: SK-MEL-28 melanoma
M14 melanoma = test system: M14 melanoma
MOLT-4 leukemia = test system: MOLT-4 leukemia
UO-31 renal = test system: UO-31 renal
LOX IMVI melanoma = test system: LOX IMVI melanoma
OVCAR-3 ovarian = test system: OVCAR-3 ovarian
K-562 leukemia = test system: K-562 leukemia
MDA-MB-435 = test system: MDA-MB-435
DU-145 prostate = test system: DU-145 prostate
OVCAR-5 ovarian = test system: OVCAR-5 ovarian
NCI-H226 lung = test system: NCI-H226 lung
SR leukemia = test system: SR leukemia
OVCAR-8 ovarian = test system: OVCAR-8 ovarian
CAKI-1 renal = test system: CAKI-1 renal
HCT-15 colon = test system: HCT-15 colon
NCI-H23 lung = test system: NCI-H23 lung
786-0 renal = test system: 786-0 renal
PC-3 prostate = test system: PC-3 prostate
SN12C renal = test system: SN12C renal
KM12 colon = test system: KM12 colon
COLO 205 colon = test system: COLO 205 colon
HS 578T breast = test system: HS 578T breast
TK-10 renal = test system: TK-10 renal
MDA-MB-231 breast = test system: MDA-MB-231 breast
SF-268 CNS = test system: SF-268 CNS

Work on `CCOC(=O)C#Cc1c(C(=O)OCC)nnn1Cc1ccc(C(F)(F)F)cc1` yielded a GI50 (HCC-2998 colon) of 18.1 µM, a TGI (HCC-2998 colon) of 32.7 µM and a GI50 (SNB-75 CNS) of 9.31 µM. For the same compound, the TGI (SNB-75 CNS) was 21.4 µM, the GI50 (SF-295 CNS) was 17.5 µM and the TGI (SF-295 CNS) was 32.9 µM. It also gave a GI50 (UACC-62 melanoma) of 1.93 µM, a TGI (UACC-62 melanoma) of 4.36 µM and a GI50 (SW-620 colon) of 2.08 µM. The TGI (SW-620 colon) was 4.36 µM, the GI50 (MALME-3M melanoma) was 2.08 µM and the TGI (MALME-3M melanoma) was 4.9 µM. It also gave a GI50 (MCF7 breast) of 2.52 µM, a TGI (MCF7 breast) of 10.1 µM and a GI50 (A498 renal) of 16.9 µM. It also gave a TGI (A498 renal) of 30.6 µM, a GI50 (NCI-H522 lung) of 2.4 µM and a TGI (NCI-H522 lung) of 4.47 µM. It also gave a GI50 (IGROV1 ovarian) of 14.2 µM, a TGI (IGROV1 ovarian) of 30.8 µM and a GI50 (U251 CNS) of 10.9 µM. For the same compound, the TGI (U251 CNS) was 22.8 µM, the GI50 (CCRF-CEM leukemia) was 1.07 µM and the TGI (CCRF-CEM leukemia) was 4.92 µM. It also gave a GI50 (HL-60(TB) leukemia) of 1.3 µM, a TGI (HL-60(TB) leukemia) of 3.85 µM and a GI50 (SK-MEL-5 melanoma) of 9.92 µM. For the same compound, the TGI (SK-MEL-5 melanoma) was 21.5 µM, the GI50 (OVCAR-4 ovarian) was 3.22 µM and the TGI (OVCAR-4 ovarian) was 11.7 µM. It also gave a GI50 (NCI/ADR-RES ovarian) of 7.49 µM, a TGI (NCI/ADR-RES ovarian) of 40.7 µM and a GI50 (HCT-116 colon) of 1.8 µM. For the same compound, the TGI (HCT-116 colon) was 3.5 µM, the GI50 (SK-OV-3 ovarian) was 19.4 µM and the TGI (SK-OV-3 ovarian) was 38.6 µM. It also gave a GI50 (EKVX NSCLC) of 16.6 µM, a TGI (EKVX NSCLC) of 31.2 µM and a GI50 (SK-MEL-2 melanoma) of 15.1 µM. The TGI (SK-MEL-2 melanoma) was 28.7 µM, the GI50 (HOP-92 NSCLC) was 2.53 µM and the TGI (HOP-92 NSCLC) was 5.7 µM. For the same compound, the GI50 (NCI-H460 lung) was 11.5 µM, the TGI (NCI-H460 lung) was 27.1 µM and the GI50 (ACHN renal) was 1.92 µM. It also gave a TGI (ACHN renal) of 3.56 µM, a GI50 (RPMI-8226 leukemia) of 2.53 µM and a TGI (RPMI-8226 leukemia) of 7.21 µM. The GI50 (T-47D breast) was 2.08 µM, the TGI (T-47D breast) was 5.66 µM and the GI50 (SNB-19 CNS) was 19.4 µM. For the same compound, the TGI (SNB-19 CNS) was 44.8 µM, the GI50 (UACC-257 melanoma) was 3.69 µM and the TGI (UACC-257 melanoma) was 11 µM. It also gave a GI50 (RXF 393 renal) of 1.68 µM, a TGI (RXF 393 renal) of 3.24 µM and a GI50 (HOP-62 NSCLC) of 17 µM. The TGI (HOP-62 NSCLC) was 32 µM, the GI50 (BT-549 breast) was 2.93 µM and the TGI (BT-549 breast) was 8.65 µM. It also gave a GI50 (A549 NSCLC) of 20.6 µM, a TGI (A549 NSCLC) of 39.2 µM and a GI50 (SK-MEL-28 melanoma) of 2.47 µM. The TGI (SK-MEL-28 melanoma) was 5.91 µM, the GI50 (M14 melanoma) was 2.46 µM and the TGI (M14 melanoma) was 5.82 µM. It also gave a GI50 (MOLT-4 leukemia) of 1.73 µM, a TGI (MOLT-4 leukemia) of 6.85 µM and a GI50 (UO-31 renal) of 1.8 µM. It also gave a TGI (UO-31 renal) of 3.47 µM, a GI50 (LOX IMVI melanoma) of 0.692 µM and a TGI (LOX IMVI melanoma) of 2.09 µM. It also gave a GI50 (OVCAR-3 ovarian) of 1.73 µM, a TGI (OVCAR-3 ovarian) of 3.32 µM and a GI50 (K-562 leukemia) of 1.77 µM. It also gave a TGI (K-562 leukemia) of 8.3 µM, a GI50 (MDA-MB-435) of 3.72 µM and a TGI (MDA-MB-435) of 14.5 µM. It also gave a GI50 (DU-145 prostate) of 3.9 µM, a TGI (DU-145 prostate) of 15.1 µM and a GI50 (OVCAR-5 ovarian) of 9.75 µM. For the same compound, the TGI (OVCAR-5 ovarian) was 22 µM, the GI50 (NCI-H226 lung) was 1.72 µM and the TGI (NCI-H226 lung) was 3.63 µM. It also gave a GI50 (SR leukemia) of 1.06 µM, a TGI (SR leukemia) of 4.48 µM and a GI50 (OVCAR-8 ovarian) of 4.37 µM. For the same compound, the TGI (OVCAR-8 ovarian) was 15 µM, the GI50 (CAKI-1 renal) was 2.09 µM and the TGI (CAKI-1 renal) was 4.58 µM. The GI50 (HCT-15 colon) was 1.95 µM, the TGI (HCT-15 colon) was 4.46 µM and the GI50 (NCI-H23 lung) was 11.5 µM. The TGI (NCI-H23 lung) was 27.6 µM, the GI50 (786-0 renal) was 2.58 µM and the TGI (786-0 renal) was 6.29 µM. The GI50 (PC-3 prostate) was 9.38 µM, the TGI (PC-3 prostate) was 22 µM and the GI50 (SN12C renal) was 2.42 µM. The TGI (SN12C renal) was 6.08 µM, the GI50 (KM12 colon) was 11.8 µM and the TGI (KM12 colon) was 25.5 µM. For the same compound, the GI50 (COLO 205 colon) was 2.32 µM, the TGI (COLO 205 colon) was 5.29 µM and the GI50 (HS 578T breast) was 22.5 µM. For the same compound, the TGI (HS 578T breast) was 59.5 µM, the GI50 (TK-10 renal) was 2.08 µM and the TGI (TK-10 renal) was 4.55 µM. The GI50 (MDA-MB-231 breast) was 4.05 µM, the TGI (MDA-MB-231 breast) was 14 µM and the GI50 (SF-268 CNS) was 8.12 µM. The TGI (SF-268 CNS) was 25.7 µM.
